These results are taken from patent US20130302497A1, “Taste Enhancement” (Givaudan S.A., priority 2010, published 2013).

A short description of this assay: Expert panel taste evaluation (umami/salty) in chicken broth with or without added choline chloride. Type of assay: in vivo. The following applies: for Taste description, material alone: without choline chloride; for Taste description, with choline added: choline chloride 7 ppm final concentration. Here is the method: The materials described below were evaluated at the concentration specified by an expert panel in a chicken broth (commercial Swanson chicken broth, with no MSG added, 50% reduced sodium 430 mg/serving) with or without added choline chloride (7 ppm final concentration).

The mark [1] stands for this setting: 10 ppm in Swanson chicken broth, no MSG added, 50% reduced sodium.

In the case of `Cc1cc(O)c(C(=O)CCc2ccccn2)cc1C` [1-(2-hydroxy-4,5-dimethylphenyl)-3-(pyridin-2-yl)propan-1-one], under setting [1], the “Taste description, material alone” value is on record as “Weak umami”. Also, under “10 ppm in chicken broth”, the “Taste description, with choline added” value was “Better, stronger umami, saltier”.

Turning to `CCCCCOc1ccc(C(=O)CCc2ccccn2)c(O)c1` [1-(2-hydroxy-4-(pentyloxy)phenyl)-3-(pyridine-2-yl)propan-1-one], under “1 ppm in chicken broth”, the “Taste description, with choline added” value is “enhanced the saltiness and umami character with a well rounded taste profile”; the “Taste description, material alone” value was “salty and umami”.

`CC(C)COc1ccc(C(=O)CCc2ccccn2)c(O)c1` [1-(2-hydroxy-4-isobutoxyphenyl)-3-(pyridine-2-yl)propan-1-one]: under “1 ppm in chicken broth”, the “Taste description, with choline added” value is “enhanced the saltiness and umami character with a well rounded taste profile”; the “Taste description, material alone” value is “Salty and umami”.

Turning to `COc1ccc(C(=O)CCc2ccccn2)c(O)c1` [1-(2-hydroxy-4-methoxyphenyl)-3-(pyridin-2-yl)propan-1-one], the “Taste description, material alone” value under setting [1] is “Umami, lingering, body”. In addition, under “10 ppm in chicken broth”, the “Taste description, with choline added” value is recorded as “enhancement of umami, enhancement of saltiness”.

For `CC(C)=CCC/C(C)=C/CNC(=O)C1CC1` [(E)-N-(3,7-dimethylocta-2,6-dienyl)cyclopropanecarboxamide], where the note is “2 ppm in chicken broth”, the “Taste description, with choline added” value is listed as “Very full, more salty, umami” and the “Taste description, material alone” value was “Umami, salty, not good aftertaste”.

Consider `COc1cc(C)ccc1CNC(=O)C(=O)NCCc1ccccn1` [N-(2-methoxy-4-methylbenzyl)-N′-(2-(pyridin-2-yl)ethyl)oxalamide], for which, under “0.5 ppm in chicken broth”, the “Taste description, with choline added” value is “more lingering umami, kokumi” and the “Taste description, material alone” value is recorded as “lingering umami”.
